From patent US7115268B1, “Peptides useful for reducing symptoms of toxic shock syndrome and septic shock” (The Rockefeller University, priority 1997, dated 2006)
Values joined by “and” are separate entries in the source; they are usually repeats but may differ in a detail not shown here. Identical values can stand only once. “Also recorded” adds a separate entry of the source. Like-named read-outs stand apart in the source and are kept apart here.

What was measured:
[1] = set-up: species or system mice; conditions: mouse, in vivo
[2] = system: PBMC stimulated with SPEG; type: cell-based, human; conditions: 72 hours
PBMC stimulated with SED = type: cell-based, human; conditions: 72 hours
[3] = system: PBMC stimulated with SPEH; type: cell-based, human; conditions: 72 hours
[4] = system: purified MHC class II molecules; type: binding
[5] = system: PBMC stimulated with SPEZ; type: cell-based, human; conditions: 72 hours
[6] = system: PBMC stimulated with TSST-1; type: cell-based, human; conditions: 72 hours
TSST-1 = TSST-1 (Staphylococcus aureus, UniProt P06886); conditions: mouse, in vivo
Sequence of TSST-1 (P06886 41-234 limits assumed): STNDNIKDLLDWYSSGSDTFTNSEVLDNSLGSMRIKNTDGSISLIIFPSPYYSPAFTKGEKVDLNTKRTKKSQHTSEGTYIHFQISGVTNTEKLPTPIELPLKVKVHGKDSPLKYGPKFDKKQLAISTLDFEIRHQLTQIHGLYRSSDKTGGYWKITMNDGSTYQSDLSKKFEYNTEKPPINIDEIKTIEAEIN

[7] = system: PBMC stimulated with SPEC; type: cell-based, human; conditions: 72 hours
PBMC stimulated with SEC = type: cell-based, human; conditions: 72 hours
[8] = system: PBMC stimulated with SPEA; type: cell-based, human; conditions: 72 hours
SEB = SEB (Staphylococcus aureus, UniProt P01552); conditions: mouse, in vivo
Sequence of SEB (P01552 28-266 limits assumed): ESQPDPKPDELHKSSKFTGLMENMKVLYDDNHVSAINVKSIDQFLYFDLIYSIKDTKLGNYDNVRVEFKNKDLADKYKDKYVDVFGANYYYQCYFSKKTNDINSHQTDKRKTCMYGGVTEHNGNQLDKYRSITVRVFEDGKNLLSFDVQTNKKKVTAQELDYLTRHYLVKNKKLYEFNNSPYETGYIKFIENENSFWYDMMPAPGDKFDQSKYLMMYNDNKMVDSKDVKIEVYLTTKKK

[9] = set-up: species or system New Zealand White rabbits; conditions: rabbit, in vivo; for antibody titers to the immunizing peptide (ELISA): sc
PBMC stimulated with SEB = type: cell-based, human; conditions: 72 hours
SPEA = SPEA (Streptococcus pyogenes phage T12, UniProt P0DJY8); conditions: mouse, in vivo
Sequence of SPEA (P0DJY8 31-251): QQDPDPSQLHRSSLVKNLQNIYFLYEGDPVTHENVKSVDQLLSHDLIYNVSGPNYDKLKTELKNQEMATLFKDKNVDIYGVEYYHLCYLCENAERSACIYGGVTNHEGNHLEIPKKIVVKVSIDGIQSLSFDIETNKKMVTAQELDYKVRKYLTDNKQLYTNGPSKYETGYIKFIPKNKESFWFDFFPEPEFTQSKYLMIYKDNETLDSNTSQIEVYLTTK

## CMYGGVTEHEGN [peptide 6343]
[1]
  induction of detectable antibodies: does not induce detectable antibodies
[2]
  inhibition of blastogenesis (tritiated thymidine incorporation): inhibited blastogenesis
PBMC stimulated with SED
  inhibition of blastogenesis (tritiated thymidine incorporation): inhibited blastogenesis
[3]
  inhibition of blastogenesis (tritiated thymidine incorporation): inhibited blastogenesis
[4]
  binding to the MHC complex: binds very strongly
  competition for the site of SEB binding on MHC (decreased anti-SEB antibody binding): able to compete effectively; also recorded: decreased anti-SEB binding at increased concentrations
[5]
  inhibition of blastogenesis (tritiated thymidine incorporation): inhibited blastogenesis
[6]
  inhibition of blastogenesis (tritiated thymidine incorporation): inhibited blastogenesis
TSST-1
  Alive/Total TSST-1: 2 out of two and 2/2 (100%)
  Alive/Total TSST-1, percent alive: 2/2 (100%)
[7]
  inhibition of blastogenesis (tritiated thymidine incorporation): inhibited blastogenesis
PBMC stimulated with SEC
  inhibition of blastogenesis (tritiated thymidine incorporation): inhibited blastogenesis
[8]
  inhibition of blastogenesis (tritiated thymidine incorporation): inhibited blastogenesis
SEB
  Alive/Total SEB: 5 out of 6 and 5/6 (83%)
  Alive/Total SEB, percent alive: 5/6 (83%)
[9]
  induction of detectable antibodies: does not induce detectable antibodies
PBMC stimulated with SEB
  inhibition of blastogenesis (tritiated thymidine incorporation): inhibited blastogenesis
  inhibition of blastogenesis, dose response: dose-response inhibition of blastogenesis
  inhibitory activity of SEB compared with peptide 6346 or peptide 6348: more inhibitory activity
SPEA
  Alive/Total SPEA: 2 out of 2 and 2/2 (100%)
  Alive/Total SPEA, percent alive: 2/2 (100%)

## CMYGGVTEHEGNKKNVTVQELDYKIRKYLVDNKKLYGC* [peptide 6348]
[9]
  antibody titers to the immunizing peptide (ELISA): high titer antibodies; also recorded: significant antibody titers

## CMYGGVTEHEGNGC* [compound 6344]
[9]
  antibody titers to the immunizing peptide (ELISA): high titers

## CGKKNVTVQELDYKIRKYLVDNKKLYGC* [peptide 6346]
[9]
  antibody titers to the immunizing peptide (ELISA): high titers
